Test results: patent publication EP3325465B1, “PESTICIDALLY ACTIVE PYRAZOLE DERIVATIVES” (Syngenta Participations AG, priority 2015, dated 2017)
Read-outs that look alike come from different tables or passages of the source.

How the values were obtained:
Format in all cases: in vivo
[1] = test system: Thrips tabaci (Onion thrips); experiment: Thrips tabaci sunflower leaf disc spray test; conditions: foliar, 144 h, application rate of 200 ppm, mortality 6 days after infestation, mixed ages
Text: (§1) The pesticidal/insecticidal properties of the compounds according to embodiments 1 or 2 can be illustrated via the following tests: Spodoptera littoralis (Egyptian cotton leaf worm) • Cotton leaf discs were placed onto agar in 24-well microtiter plates and sprayed with aqueous test solutions prepared from 10'000 ppm DMSO stock solutions. After drying the leaf discs were infested with five L1 larvae. […] Plutella xylostella (Diamond back moth): 24-well microtiter plates with artificial diet were treated with aqueous test solutions prepared from 10'000 ppm DMSO stock solutions by pipetting. After drying, the plates were infested with L2 larvae (10 to 15 per well). The samples were assessed for mortality and growth inhibition in comparison to untreated samples 5 days after infestation. […] Diabrotica balteata, (Corn root worm) • Maize sprouts placed onto an agar layer in 24-well microtiter plates were treated with aqueous test solutions prepared from 10'000 ppm DMSO stock solutions by spraying. After drying, the plates were infested with L2 larvae (6 to 10 per well). […] Thrips tabaci (Onion thrips): Sunflower leaf discs were placed on agar in 24-well microtiter plates and sprayed with aqueous test solutions prepared from 10'000 ppm DMSO stock solutions. After drying the leaf discs were infested with a thrips population of mixed ages. The samples were assessed for mortality 6 days after infestation. […] Tetranychus urticae (Two-spotted spider mite): Bean leaf discs on agar in 24-well microtiter plates were sprayed with aqueous test solutions prepared from 10'000 ppm DMSO stock solutions. After drying the leaf discs were infested with a mite population of mixed ages. The samples were assessed for mortality on mixed population (mobile stages) 8 days after infestation. […] Euschistus heros (Neotropical Brown Stink Bug): • Two weeks old soybean plants were sprayed in a turn table spray chamber with the diluted spray solutions. After drying 2 soybean seeds were added and plants were infested with 10 N2 nymphs of the neotropical brown stink bug Euschistus heros in plastic test boxes. The samples were assessed for mortality in comparison to untreated samples 5 days after infestation. • The following compounds gave at least 80% mortality of Euschistus heros at an application rate of 12.5 ppm: Compounds 3 , 4 , 8 , 39 , 43 , 44 , 46 , 75 , 76 , 77 , 78 , 79 , 80 , 81 , 82 , 88 , 90 , 93 and 95 . Myzus persicae (Green peach aphid): Sunflower leaf discs were placed on agar in a 24-well microtiter plate and sprayed with test solutions at an application rate of 200 ppm. After drying, the leaf discs were infested with an aphid population of mixed ages. After an incubation period of 6 DAT, samples were checked for mortality. The following compounds gave at least 50% mortality of Myzus persicae: Compounds 3 , 4 , 8 , 43 , 44 , 75 , 76 , 77 , 80 , 81 , 90 and 92 . Myzus persicae (Green peach aphid): • Test compounds were applied by pipette into 24 well plates and mixed with Sucrose solution. Application rate: 12.5ppm. The plates were closed with a stretched parafilm. A plastic stencil with 24 holes is placed onto the plate and infested pea seedlings were placed directly on the Parafilm. The infested plate is closed with a gel blotting paper and another plastic stencil and then turned upside down. […]

[2] = test system: Myzus persicae (Green peach aphid); experiment: Myzus persicae sucrose solution / Parafilm feeding test; conditions: 120 h, read-out: mortality of Myzus persicae
Text: as §1

[3] = test system: Plutella xylostella (Diamond back moth); experiment: Plutella xylostella artificial diet test, L2 larvae; conditions: 120 h, application rate of 200 ppm, mortality and growth inhibition 5 days after infestation
Text: as §1

[4] = test system: Spodoptera littoralis (Egyptian cotton leaf worm); experiment: Spodoptera littoralis cotton leaf disc spray test, L1 larvae; conditions: foliar, 72 h
Text: as §1

[5] = test system: Diabrotica balteata, (Corn root worm); experiment: Diabrotica balteata maize sprout spray test, L2 larvae; conditions: 96 h
Text: as §1

[6] = test system: Tetranychus urticae (Two-spotted spider mite); experiment: Tetranychus urticae bean leaf disc spray test; conditions: foliar, 192 h, application rate of 200 ppm, mortality on mixed population (mobile stages) 8 days after infestation
Text: as §1

[7] = test system: Euschistus heros (Neotropical Brown Stink Bug); experiment: Euschistus heros soybean plant spray test, N2 nymphs; conditions: 120 h, application rate of 12.5 ppm, 5 days after infestation, N2 nymphs, read-out: mortality of Euschistus heros
Text: as §1

[8] = Application rate: 12.5ppm, sucrose solution, 5 days after infestation
[9] = application rate of 200 ppm, 3 days after infestation, L1 larvae, read-out: mortality
[10] = application rate of 200 ppm, 4 days after infestation, L2 larvae, read-out: mortality

Cn1nc(C(F)(F)C(F)(F)F)c(C(F)(F)F)c1-c1noc(-c2ccc(Cl)c(C(=O)NC3(C#N)CC3)c2)n1 [Compound 10, 2-Chloro-N-(1-cyanocyclopropyl)-5-[3-[2-methyl-5-(1,1,2,2,2-pentafluoroethyl)-4-(trifluoromethyl)pyrazol-3-yl]-1,2,4-oxadiazol-5-yl]benzamide]
≥ 80%: pest or weed control at 200 ppm [1] | mortality at 12.5 ppm [2] | pest or weed control at 200 ppm [3] | mortality at 200 ppm [4] | mortality at 200 ppm [5]

Cn1cc(-c2c(C(F)(F)F)c(C(F)(F)C(F)(F)F)nn2C)nc1-c1ccc(Cl)c(C(=O)NC2CC2)c1 [Compound 29, 2-chloro-N-cyclopropyl-5-[1-methyl-4-[2-methyl-5-(1,1,2,2,2-pentafluoroethyl)-4-(trifluoromethyl)pyrazol-3-yl]imidazol-2-yl]benzamide]
≥ 80%: pest or weed control at 200 ppm [6] | mortality at 12.5 ppm [2, 8] | pest or weed control at 200 ppm [3] | mortality at 200 ppm [4, 9] | mortality at 200 ppm [5, 10]

Cn1nc(C(F)(F)C(F)(F)F)c(C(F)(F)F)c1-c1cnn(-c2ccc(Cl)c(C(=O)NC3(C#N)CC3)c2)c1 [Compound 38, 2-chloro-N-(1-cyanocyclopropyl)-5-[4-[2-methyl-5-(1,1,2,2,2-pentafluoroethyl)-4-(trifluoromethyl)pyrazol-3-yl]pyrazol-1 - yl]benzamide]
≥ 80%: mortality at 12.5 ppm [2, 8]

Cn1nc(C(F)(F)C(F)(F)F)c(C(F)(F)F)c1-c1cc(-c2ccc(Cl)c(C(=O)NC3(C#N)CC3)c2)ns1 [Compound 46, 2-chloro-N-(1-cyanocyclopropyl)-5-[5-[2-methyl-5-(1,1,2,2,2-pentafluoroethyl)-4-(trifluoromethyl)pyrazol-3-yl]isothiazol-3-yl]benzamide]
≥ 80%: mortality at 200 ppm [4, 9] | mortality at 12.5 ppm [7]

Cn1nc(C(F)(F)C(F)(F)F)c(C(F)(F)F)c1-c1cc(-c2ccc(Cl)c(C(=O)NC3(C#N)CC3)c2)[nH]n1 [Compound 72, 2-chloro-N-(1-cyanocyclopropyl)-5-[3-[2-methyl-5-(1,1,2,2,2-pentafluoroethyl)-4-(trifluoromethyl)pyrazol-3-yl]-1H-pyrazol-5-yl]benzamide]
≥ 80%: mortality at 12.5 ppm [2, 8] | pest or weed control at 200 ppm [3] | mortality at 200 ppm [4, 9] | mortality at 200 ppm [5, 10]

Cn1nc(C(F)(F)C(F)(F)F)c(C(F)(F)F)c1-c1cc(-c2ccc(Cl)c(C(=O)NC3CCOC3=O)c2)on1 (stereo not shown) [Compound 78, 2-chloro-5-[3-[2-methyl-5-(1,1,2,2,2-pentafluoroethyl)-4-(trifluoromethyl)pyrazol-3-yl]isoxazol-5-yl]-N-(2-oxotetrahydrofuran-3-yl)benzamide]
≥ 80%: pest or weed control at 200 ppm [1] | pest or weed control at 200 ppm [6] | mortality at 200 ppm [4, 9] | mortality at 12.5 ppm [7] | mortality at 200 ppm [5, 10]

C#CCNC(=O)c1cc(-c2cc(-c3c(C(F)(F)F)c(C(F)(F)C(F)(F)F)nn3C)no2)ccc1Cl [Compound 79, 2-chloro-5-[3-[2-methyl-5-(1,1,2,2,2-pentafluoroethyl)-4-(trifluoromethyl)pyrazol-3-yl]isoxazol-5-yl]-N-prop-2-ynyl-benzamide]
≥ 80%: pest or weed control at 200 ppm [1] | pest or weed control at 200 ppm [6] | pest or weed control at 200 ppm [3] | mortality at 200 ppm [4, 9] | mortality at 12.5 ppm [7] | mortality at 200 ppm [5, 10]

C=C(Cl)CNC(=O)c1cc(-c2cc(-c3c(C(F)(F)F)c(C(F)(F)C(F)(F)F)nn3C)no2)ccc1Cl [Compound 82, 2-chloro-N-(2-chloroallyl)-5-[3-[2-methyl-5-(1,1,2,2,2-pentafluoroethyl)-4-(trifluoromethyl)pyrazol-3-yl]isoxazol-5-yl]benzamide]
≥ 80%: pest or weed control at 200 ppm [1] | pest or weed control at 200 ppm [3] | mortality at 200 ppm [4, 9] | mortality at 12.5 ppm [7] | mortality at 200 ppm [5, 10]

Cn1nc(C(F)(F)C(F)(F)F)c(C(F)(F)F)c1-c1cc(-c2ccc(Cl)c(C(=O)NC3(C(F)(F)F)CC3)c2)on1 [Compound 88, 2-chloro-5-[3-[2-methyl-5-(1,1,2,2,2-pentafluoroethyl)-4-(trifluoromethyl)pyrazol-3-yl]isoxazol-5-yl]-N-[1-(trifluoromethyl)cyclopropyl]benzamide]
≥ 80%: pest or weed control at 200 ppm [1] | pest or weed control at 200 ppm [3] | mortality at 200 ppm [4, 9] | mortality at 12.5 ppm [7] | mortality at 200 ppm [5, 10]

Cn1nc(C(F)(F)C(F)(F)F)c(C(F)(F)F)c1-c1cc(-c2ccc(Cl)c(C(=O)Nc3ccncc3)c2)on1 [Compound 89, 2-chloro-5-[3-[2-methyl-5-(1,1,2,2,2-pentafluoroethyl)-4-(trifluoromethyl)pyrazol-3-yl]isoxazol-5-yl]-N-(4-pyridyl)benzamide]
≥ 80%: pest or weed control at 200 ppm [1] | pest or weed control at 200 ppm [6] | pest or weed control at 200 ppm [3] | mortality at 200 ppm [4, 9] | mortality at 200 ppm [5, 10]

Cn1nc(C(F)(F)C(F)(F)F)c(C(F)(F)F)c1-c1cc(-c2ccc(Cl)c(C(N)=O)c2)on1 [Compound 94, 2-chloro-5-[3-[2-methyl-5-(1,1,2,2,2-pentafluoroethyl)-4-(trifluoromethyl)pyrazol-3-yl]isoxazol-5-yl]benzamide]
≥ 80%: pest or weed control at 200 ppm [1] | pest or weed control at 200 ppm [6] | pest or weed control at 200 ppm [3] | mortality at 200 ppm [4, 9] | mortality at 200 ppm [5, 10]

Cn1nc(C(F)(F)C(F)(F)F)c(C(F)(F)F)c1-c1cc(-c2ccc(Cl)c(C(=O)NC3(c4ccccn4)CC3)c2)on1 [Compound 95, 2-chloro-5-[3-[2-methyl-5-(1,1,2,2,2-pentafluoroethyl)-4-(trifluoromethyl)pyrazol-3-yl]isoxazol-5-yl]-N-[1-(2-pyridyl)cyclopropyl]benzamide]
≥ 80%: pest or weed control at 200 ppm [1] | pest or weed control at 200 ppm [3] | mortality at 200 ppm [4, 9] | mortality at 12.5 ppm [7] | mortality at 200 ppm [5, 10]

Cn1nc(C(F)(F)C(F)(F)F)c(C(F)(F)F)c1-c1cc(-c2ccc(Cl)c(C(=O)NCC(F)(F)F)c2)on1 [Compound 96, 2-chloro-5-[3-[2-methyl-5-(1,1,2,2,2-pentafluoroethyl)-4-(trifluoromethyl)pyrazol-3-yl]isoxazol-5-yl]-N-(2,2,2-trifluoroethyl)benzamide]
≥ 80%: pest or weed control at 200 ppm [1] | mortality at 12.5 ppm [2, 8] | pest or weed control at 200 ppm [3] | mortality at 200 ppm [4, 9] | mortality at 200 ppm [5, 10]

Cn1nc(C(F)(F)C(F)(F)F)c(C(F)(F)F)c1-c1cc(-c2ccc(Cl)c(C(=O)NCC(F)F)c2)on1 [Compound 97, 2-chloro-N-(2,2-difluoroethyl)-5-[3-[2-methyl-5-(1,1,2,2,2-pentafluoroethyl)-4-(trifluoromethyl)pyrazol-3-yl]isoxazol-5-yl]benzamide]
≥ 80%: mortality at 12.5 ppm [2, 8] | pest or weed control at 200 ppm [3] | mortality at 200 ppm [4, 9] | mortality at 200 ppm [5, 10]

C=C(C)CNC(=O)c1cc(-c2cc(-c3c(C(F)(F)F)c(C(F)(F)C(F)(F)F)nn3C)no2)ccc1Cl [Compound 98, 2-chloro-N-(2-methylallyl)-5-[3-[2-methyl-5-(1,1,2,2,2-pentafluoroethyl)-4-(trifluoromethyl)pyrazol-3-yl]isoxazol-5-yl]benzamide]
≥ 80%: pest or weed control at 200 ppm [1] | pest or weed control at 200 ppm [6] | pest or weed control at 200 ppm [3] | mortality at 200 ppm [4, 9] | mortality at 200 ppm [5, 10]
